{
  "source": "paper PMC3818563",
  "about": "“Effect of Iboga Alkaloids on µ-Opioid Receptor-Coupled G Protein Activation” (PLoS ONE, 2013)",
  "key": {"μ-opioid receptor (MOR) [1]": {"system": "μ-opioid receptor (MOR)", "conditions": "cited from earlier work"}, "mouse mMOR": {"target": "T1, mouse mMOR (Mus musculus, UniProt P42866)", "T1 construct": "expressed in transfected cells", "T1 sequence (P42866 whole entry)": "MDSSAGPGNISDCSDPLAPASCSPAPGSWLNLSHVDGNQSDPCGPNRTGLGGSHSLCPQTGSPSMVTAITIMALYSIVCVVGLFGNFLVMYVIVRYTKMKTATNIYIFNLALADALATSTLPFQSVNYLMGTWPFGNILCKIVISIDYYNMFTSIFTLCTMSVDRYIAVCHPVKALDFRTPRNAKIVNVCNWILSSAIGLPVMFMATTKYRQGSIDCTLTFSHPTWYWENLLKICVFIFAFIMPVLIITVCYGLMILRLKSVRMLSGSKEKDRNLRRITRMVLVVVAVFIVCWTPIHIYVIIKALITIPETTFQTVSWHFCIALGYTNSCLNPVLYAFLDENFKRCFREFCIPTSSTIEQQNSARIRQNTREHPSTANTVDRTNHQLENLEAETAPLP", "assay": "[35S]GTPγS binding in mMOR-expressing HEK 293 cells (Reith lab)", "format": "biochemical"}, "[2]": {"assay": "Solubility of stocks in water", "conditions": "thermodynamic from solid"}, "μ-opioid receptor (MOR) [3]": {"target": "T2, μ-opioid receptor (MOR) (Rattus norvegicus, UniProt P33535)", "T2 sequence (P33535 whole entry)": "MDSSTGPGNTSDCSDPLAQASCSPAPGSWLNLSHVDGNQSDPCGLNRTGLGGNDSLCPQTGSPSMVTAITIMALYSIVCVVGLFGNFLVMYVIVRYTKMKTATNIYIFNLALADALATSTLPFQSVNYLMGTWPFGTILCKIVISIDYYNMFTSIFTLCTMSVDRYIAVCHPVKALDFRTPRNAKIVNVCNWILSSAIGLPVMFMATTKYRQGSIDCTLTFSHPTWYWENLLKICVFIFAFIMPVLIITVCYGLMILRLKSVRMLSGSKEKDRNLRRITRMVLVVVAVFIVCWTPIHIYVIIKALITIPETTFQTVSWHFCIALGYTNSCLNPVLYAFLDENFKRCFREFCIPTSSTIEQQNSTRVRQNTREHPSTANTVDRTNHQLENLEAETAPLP", "assay": "[35S]GTPγS binding in Sprague-Dawley / Fischer 344 rat thalamic membranes (Janowsky lab)", "format": "biochemical", "design": "from tissue; host or cells: rat thalamus membranes (Sprague-Dawley; also Fischer F344 in the Janowsky lab)"}, "NMDA receptor": {"system": "NMDA receptor", "conditions": "cited from earlier work"}, "μ-opioid receptor (MOR) [4]": {"target": "T2, μ-opioid receptor (MOR)", "assay": "[35S]GTPγS binding in Sprague-Dawley rat thalamic membranes (Reith lab)", "format": "biochemical", "design": "from tissue; host or cells: rat thalamus membranes (Sprague-Dawley; also Fischer F344 in the Janowsky lab)", "conditions": "for Ki: Antagonist activity Ke (functional Ki), Sprague-Dawley rat thalamic membranes (Reith lab), versus DAMGO (1 µM) as agonist"}, "μ-opioid receptor (MOR) [5]": {"target": "T2, μ-opioid receptor (MOR)", "assay": "[35S]GTPγS binding in Sprague-Dawley rat thalamic membranes (Childers lab)", "format": "biochemical", "design": "from tissue; host or cells: rat thalamus membranes (Sprague-Dawley; also Fischer F344 in the Janowsky lab)"}, "rat rMOR": {"target": "T3, rat rMOR (Rattus norvegicus, UniProt P33535)", "T3 construct": "expressed in transfected cells", "T3 sequence (P33535 whole entry)": "as above", "assay": "[35S]GTPγS binding in rMOR-expressing CHO cells (Janowsky lab)", "format": "biochemical", "conditions": "read-out: Agonist activity Emax (%)"}, "μ-opioid receptor (MOR) [6]": {"target": "T2, μ-opioid receptor (MOR)", "assay": "In vitro autoradiography of agonist-stimulated [35S]GTPγS binding in rat brain sections (Childers lab)", "format": "biochemical", "design": "from tissue", "conditions": "noribogaine by itself at concentrations up to 30 µM"}, "μ-opioid receptor (MOR) [7]": {"target": "T2, μ-opioid receptor (MOR)", "design": "method as in PMID 9592058", "conditions": "rat thalamic membranes, cited from earlier work"}, "human hMOR": {"target": "T4, human hMOR (Homo sapiens, UniProt P35372)", "T4 construct": "expressed in transfected cells", "T4 sequence (P35372 whole entry)": "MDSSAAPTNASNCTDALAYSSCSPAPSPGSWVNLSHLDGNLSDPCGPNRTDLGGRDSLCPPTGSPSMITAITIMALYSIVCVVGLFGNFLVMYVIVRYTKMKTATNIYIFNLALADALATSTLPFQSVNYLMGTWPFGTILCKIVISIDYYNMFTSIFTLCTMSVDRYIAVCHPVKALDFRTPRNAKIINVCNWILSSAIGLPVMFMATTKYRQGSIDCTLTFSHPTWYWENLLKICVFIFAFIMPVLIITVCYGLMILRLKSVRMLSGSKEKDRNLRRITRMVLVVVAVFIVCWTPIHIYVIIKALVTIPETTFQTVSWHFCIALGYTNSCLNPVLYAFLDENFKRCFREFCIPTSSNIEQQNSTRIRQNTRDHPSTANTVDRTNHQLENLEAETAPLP", "assay": "[35S]GTPγS binding in hMOR-expressing CHO cells (Rothman lab)", "format": "biochemical"}, "[8]": {"conditions": "estimated; cited from earlier work"}, "[9]": {"target": "mouse µ-opioid receptor (mMOR) (mouse) (UniProt P42866)", "sequence (P42866 whole entry)": "as the sequence (P42866 whole entry) above"}, "[10]": {"target": "µ-opioid receptor (MOR) of rat brain (rat (endogenous in rat thalamus and brain sections)) (UniProt P33535)", "sequence (P33535 whole entry)": "as the sequence (P33535 whole entry) above"}, "[11]": {"target": "µ-opioid receptor (MOR) of rat brain (rat (endogenous in rat thalamus and brain sections)) (UniProt P33535)", "remark": "listed apart in the source"}, "[12]": {"target": "rat µ-opioid receptor (rMOR), recombinant (rat) (UniProt P33535)", "sequence (P33535 whole entry)": "as above"}, "α2 receptor": {"system": "α2 receptor", "conditions": "cited from earlier work"}, "[13]": {"conditions": "read-out: Agonist activity Emax (%)"}, "[14]": {"conditions": "concentrations up to 10^-5 M, Janowsky lab procedures or procedures of Pablo and Mash"}, "[15]": {"conditions": "Sprague-Dawley rat thalamic membranes, concentrations up to 100 µM"}},
  "note": "Where “and” joins values, the source holds several entries; their conditions need not be identical. Identical values can stand only once. Entries after “also recorded” stand apart in the source; their conditions may differ. Counter-ions that a name gives are not always drawn. Like-named read-outs stand apart in the source and are kept apart here.",
  "data": [
    {"compound": "COCC[C@H]1CC2CN3CCc4c([nH]c5ccccc45)[C@](C(=O)OC)(C2)[C@H]13", "note": "[18-MC, 18-methoxycoronaridine]", "values": [
      {"measurement": "affinity for the μ-opioid receptor (MOR)", "setting": "μ-opioid receptor (MOR) [1]", "result": "low micromolar range"},
      {"measurement": "EC50", "setting": "mouse mMOR", "result": "3.42 ± 2.2", "unit": "µM"},
      {"measurement": "Ki", "setting": "mouse mMOR", "result": "19.1 ± 2.97", "unit": "µM"},
      {"measurement": "Emax", "setting": "mouse mMOR; [13]", "result": "19 ± 4", "unit": "%"},
      {"measurement": "solubility", "setting": "[2]", "result": "≥ 1000", "unit": "µM"},
      {"measurement": "stimulation of [35S]GTPγS binding", "setting": "μ-opioid receptor (MOR) [3]; [14]", "result": "did not stimulate"},
      {"measurement": "affinity for the NMDA receptor", "setting": "NMDA receptor", "result": "lacks significant affinity"},
      {"measurement": "IC50", "setting": "μ-opioid receptor (MOR) [4]", "result": "83.3 ± 19.4", "unit": "µM"},
      {"measurement": "Ki", "setting": "μ-opioid receptor (MOR) [4]", "result": "13 µM and 13.2 µM"},
      {"measurement": "stimulation of [35S]GTPγS binding", "setting": "μ-opioid receptor (MOR) [4]; [15]", "result": "no significant stimulation; also recorded: no efficacy"}
    ]},
    {"compound": "C[C@@H](NC(=O)[C@@H](N)Cc1ccc(O)cc1)C(=O)NCC(=O)N(C)[C@@H](Cc1ccccc1)C(=O)NCCO", "note": "[DAMGO, [D-Ala^2, N-MePhe^4, Gly-ol]-enkephalin, reference compound]", "values": [
      {"measurement": "Emax", "setting": "mouse mMOR; read-out: maximal stimulation of [35S]GTPγS binding over basal", "result": "257 ± 12", "unit": "%"},
      {"measurement": "Emax", "setting": "μ-opioid receptor (MOR) [3]; [13]", "result": 100, "unit": "%"},
      {"measurement": "maximal level of stimulation of [35S]GTPγS binding over basal", "setting": "μ-opioid receptor (MOR) [4]; Sprague-Dawley rat thalamic membranes", "result": "214 ± 6", "unit": "%"},
      {"measurement": "Emax", "setting": "μ-opioid receptor (MOR) [4]; [13]", "result": 100, "unit": "%"},
      {"measurement": "Emax", "setting": "μ-opioid receptor (MOR) [5]; [13]", "result": 100, "unit": "%"},
      {"measurement": "Emax", "setting": "rat rMOR", "result": 100, "unit": "%"}
    ]},
    {"compound": "CC[C@H]1C[C@@H]2C[C@H]3c4[nH]c5ccc(O)cc5c4CCN(C2)[C@@H]13", "note": "[Noribogaine, Noribogaine HCl]", "values": [
      {"measurement": "affinity for the μ-opioid receptor (MOR)", "setting": "μ-opioid receptor (MOR) [1]", "result": "low micromolar range"},
      {"measurement": "effect on [35S]GTPγS binding in any brain region", "setting": "μ-opioid receptor (MOR) [6]", "result": "had no effect"},
      {"measurement": "EC50", "setting": "mouse mMOR", "result": "7.42 ± 1.3", "unit": "µM"},
      {"measurement": "Ki", "setting": "mouse mMOR", "result": "38.3 ± 1.71", "unit": "µM"},
      {"measurement": "Emax", "setting": "mouse mMOR; [13]", "result": "36 ± 6", "unit": "%"},
      {"measurement": "agonist classification by naloxone-sensitive stimulation of [35S]GTPγS binding", "setting": "μ-opioid receptor (MOR) [7]", "result": "full MOR agonist"},
      {"measurement": "EC50", "setting": "μ-opioid receptor (MOR) [7]; read-out: EC50 for stimulating [35S]GTPγS binding", "result": 0.324, "unit": "µM"},
      {"measurement": "Ki", "setting": "human hMOR", "result": "1.48 ± 0.25", "unit": "µM"},
      {"measurement": "solubility", "setting": "[2]", "result": "≥ 1000", "unit": "µM"},
      {"measurement": "stimulation of [35S]GTPγS binding", "setting": "μ-opioid receptor (MOR) [3]; [14]", "result": "did not stimulate"},
      {"measurement": "IC50", "setting": "μ-opioid receptor (MOR) [4]", "result": "84 ± 27.8", "unit": "µM"},
      {"measurement": "Ki", "setting": "μ-opioid receptor (MOR) [4]", "result": "13 µM and 13.3 µM"},
      {"measurement": "stimulation of [35S]GTPγS binding", "setting": "μ-opioid receptor (MOR) [4]; [15]", "result": "no significant stimulation; also recorded: no efficacy"},
      {"measurement": "inhibition of the stimulation evoked by 1 µM DAMGO", "setting": "μ-opioid receptor (MOR) [5]; Sprague-Dawley rat thalamic membranes (Childers lab), noribogaine up to 10 µM", "result": "did not inhibit"},
      {"measurement": "effect on [35S]GTPγS binding by itself", "setting": "μ-opioid receptor (MOR) [5]; concentrations up to 30 µM", "result": "did not have any effect"},
      {"measurement": "half-life relative to parent compound", "setting": "[8]", "result": "considerably longer than that of the parent compound"}
    ]},
    {"compound": "DAMGO ([D-Ala^2, N-MePhe^4, Gly-ol]-enkephalin) (peptide)", "values": [
      {"measurement": "maximal stimulation of [35S]GTPγS binding over basal, HEK 293-mMOR cell membranes (Reith lab)", "setting": "[9]", "result": 257, "unit": "% over basal"},
      {"measurement": "maximal stimulation of [35S]GTPγS binding over basal, Sprague-Dawley rat thalamic membranes (Reith lab)", "setting": "[10]", "result": 214, "unit": "% over basal"},
      {"measurement": "EC50 of stimulation of [35S]GTPγS binding, Sprague-Dawley and Fischer 344 rat thalamic membranes (Janowsky lab)", "setting": "[11]", "result": 0.122, "unit": "µM"},
      {"measurement": "EC50 of stimulation of [35S]GTPγS binding, Sprague-Dawley rat thalamic membranes (Childers lab)", "setting": "[11]", "result": 0.21, "unit": "µM"},
      {"measurement": "EC50 of stimulation of [35S]GTPγS binding, Sprague-Dawley rat thalamic membranes (Reith lab)", "setting": "[11]", "result": 0.238, "unit": "µM"},
      {"measurement": "EC50 of stimulation of [35S]GTPγS binding, CHO rMOR cell membranes (Janowsky lab)", "setting": "[12]", "result": 0.034, "unit": "µM"}
    ]},
    {"compound": "Ibogaine HCl", "values": [
      {"measurement": "affinity for the μ-opioid receptor (MOR)", "setting": "μ-opioid receptor (MOR) [1]", "result": "low micromolar range"},
      {"measurement": "stimulation of [35S]GTPγS binding", "setting": "μ-opioid receptor (MOR) [7]; 100 µM ibogaine", "result": "~20", "unit": "%"},
      {"measurement": "stimulation of [35S]GTPγS binding", "setting": "μ-opioid receptor (MOR) [7]; concentrations of 100 µM to 1 mM", "result": "20-30%"},
      {"measurement": "stimulation of [35S]GTPγS binding", "setting": "μ-opioid receptor (MOR) [3]", "result": "did not stimulate"},
      {"measurement": "stimulation of [35S]GTPγS binding", "setting": "μ-opioid receptor (MOR) [4]", "result": "no significant stimulation"},
      {"measurement": "affinity for the α2 receptor", "setting": "α2 receptor", "result": "no significant affinity"}
    ]}
  ]
}
